According to patent US6992079B2, “Substituted 11-phenyl-dibenzazepine compounds useful for the treatment or prevention of diseases characterized by abnormal cell proliferation” (President Fellows of Harvard College, priority 1997, dated 2006):
Where two headings read alike, the source gives them in different places.

Tests used:
[1] = tested on: BT-549; assay: In-Vitro Testing SRB panel: Breast Cancer; format: cell-based
[2] = tested on: NCI-H522; format: cell-based
[3] = tested on: H460 large cell lung carcinoma; assay: Mouse xenograft tumor growth; format: in vivo, CD-1 nude mice
[4] = tested on: ACHN; assay: In-Vitro Testing SRB panel: Renal Cancer; format: cell-based
[5] = tested on: T-47D; assay: In-Vitro Testing SRB panel: Breast Cancer; format: cell-based
[6] = tested on: K-562; assay: In-Vitro Testing SRB panel: Leukemia; format: cell-based
[7] = tested on: OVCAR-4; assay: In-Vitro Testing SRB panel: Ovarian Cancer; format: cell-based
[8] = tested on: CCRF-CEM; assay: In-Vitro Testing SRB panel: Leukemia; format: cell-based
[9] = tested on: ROP-62; format: cell-based
[10] = tested on: SW-620; assay: In-Vitro Testing SRB panel: Colon Cancer; format: cell-based
[11] = tested on: SNB-19; assay: In-Vitro Testing SRB panel: CNS Cancer; format: cell-based
[12] = tested on: PC-3; assay: In-Vitro Testing SRB panel: Prostate Cancer; format: cell-based
[13] = tested on: A2058 metastatic melanoma; assay: Mouse xenograft tumor growth; format: in vivo, CD-1 nude mice
Experimental: NCI-A2058 human melanoma cell line was grown as monolayer culture in Minimum essential medium (D-MEM) supplemented with 10% fetal bovine serum (FBS), 0.1 mM non-essential amino acid, 1.0 mM sodium pyruvate, 100U/ml penicillin, 100 μg/ml streptomycin and 0.25 μg/ml amphotericin B and L-alanyl-1-glutamine (2 mM) at 37° C. in an atmosphere of 5% CO2 in air. The tumor cells were routinely subcultured twice weekly by trypsin-EDTA treatment. The cells were harvested from subconfluent logarithmically growing culture by treatment with typsin-EDTA and counted for tumor inoculation.
An acclimation period of at least 7 days were allowed between animal receipt and commence of tumor inoculation. When the female CD-1 nude mice were more than 6-7 weeks of age (20-25 g), each mouse was subcutaneously injected with 5.0×10^6 NCI-A2058 human melanoma cells in 0.1 ml of PBS solution at the right flank of the mice to induce tumor growth.

[14] = tested on: MC-F7; assay: In-Vitro Testing SRB panel: Breast Cancer; format: cell-based
[15] = tested on: NCI-H460; format: cell-based
[16] = tested on: CARI-1; assay: In-Vitro Testing SRB panel: Renal Cancer; format: cell-based
[17] = Homo sapiens, read-out: LC50 (the source's name)

Structure (SMILES): COc1ccc2c(c1)CN(C(=O)c1ccc([N+](=O)[O-])cc1)c1ccc(Cl)cc1C2c1ccccc1Cl (centres unmarked) [Compound 30]
- TGI ([1]; BT-549): >1.00E−04 Molar
- Percent Growth ([1]; BT-549, Log10 concentration −4.0 Molar): 61%
- Percent Growth ([1]; BT-549, Log10 concentration −5.0 Molar): 75%
- Percent Growth ([1]; BT-549, Log10 concentration −6.0 Molar): 90%
- Percent Growth ([1]; BT-549, Log10 concentration −7.0 Molar): 99%
- Percent Growth ([1]; BT-549, Log10 concentration −8.0 Molar): 95%
- GI50 ([1]; Homo sapiens, BT-549): > 100 µM
- CC50 ([1]; Homo sapiens, BT-549, read-out: LC50 (the source's name)): > 100 µM
- GI50 ([2]; Homo sapiens, NCI-H522): 0.76 µM
- CC50 ([2]; Homo sapiens, NCI-H522, read-out: LC50 (the source's name)): > 100 µM
- TGI ([2]; NCI-H522): 6.10E−05 Molar
- Percent Growth ([2]; NCI-H522, Log10 concentration −4.0 Molar): −9%
- Percent Growth ([2]; NCI-H522, Log10 concentration −5.0 Molar): 19%
- Percent Growth ([2]; NCI-H522, Log10 concentration −6.0 Molar): 42%
- Percent Growth ([2]; NCI-H522, Log10 concentration −7.0 Molar): 113%
- Percent Growth ([2]; NCI-H522, Log10 concentration −8.0 Molar): 114%
- tumor growth [3]: showed inhibition of tumor growth
- TGI [4]: >1.00E−04 Molar
- CC50 [4, 17]: > 100 µM
- Percent Growth ([4]; Log10 concentration −4.0 Molar): 53%
- Percent Growth ([4]; Log10 concentration −5.0 Molar): 50%
- Percent Growth ([4]; Log10 concentration −6.0 Molar): 94%
- Percent Growth ([4]; Log10 concentration −7.0 Molar): 108%
- Percent Growth ([4]; Log10 concentration −8.0 Molar): 107%
- GI50 ([5]; Homo sapiens, T47D): 2.87 µM
- CC50 ([5]; Homo sapiens, T47D, T-47D, read-out: LC50 (the source's name)): > 100 µM
- TGI ([5]; T-47D): >1.00E−04 Molar
- Percent Growth ([5]; T-47D, Log10 concentration −4.0 Molar): 18%
- Percent Growth ([5]; T-47D, Log10 concentration −5.0 Molar): 23%
- Percent Growth ([5]; T-47D, Log10 concentration −6.0 Molar): 71%
- Percent Growth ([5]; T-47D, Log10 concentration −7.0 Molar): 96%
- Percent Growth ([5]; T-47D, Log10 concentration −8.0 Molar): 92%
- GI50 ([6]; Homo sapiens, K562): 1.33 µM
- CC50 ([6]; Homo sapiens, K562, K-562, read-out: LC50 (the source's name)): > 100 µM
- TGI ([6]; K-562): >1.00E−04 Molar
- Percent Growth ([6]; K-562, Log10 concentration −4.0 Molar): 17%
- Percent Growth ([6]; K-562, Log10 concentration −5.0 Molar): 24%
- Percent Growth ([6]; K-562, Log10 concentration −6.0 Molar): 54%
- Percent Growth ([6]; K-562, Log10 concentration −7.0 Molar): 86%
- Percent Growth ([6]; K-562, Log10 concentration −8.0 Molar): 99%
- GI50 ([7]; Homo sapiens, OVCAR-4): 1.86 µM
- CC50 ([7]; Homo sapiens, OVCAR-4, read-out: LC50 (the source's name)): > 100 µM
- TGI ([7]; OVCAR-4): 9.89E−06 Molar
- Percent Growth ([7]; OVCAR-4, Log10 concentration −4.0 Molar): −9%
- Percent Growth ([7]; OVCAR-4, Log10 concentration −5.0 Molar): 0%
- Percent Growth ([7]; OVCAR-4, Log10 concentration −6.0 Molar): 69%
- Percent Growth ([7]; OVCAR-4, Log10 concentration −7.0 Molar): 103%
- Percent Growth ([7]; OVCAR-4, Log10 concentration −8.0 Molar): 109%
- TGI [8]: >1.00E−04 Molar
- GI50 ([8]; Homo sapiens): 1.85 µM
- CC50 [8, 17]: > 100 µM
- Percent Growth ([8]; Log10 concentration −4.0 Molar): 39%
- Percent Growth ([8]; Log10 concentration −5.0 Molar): 22%
- Percent Growth ([8]; Log10 concentration −6.0 Molar): 60%
- Percent Growth ([8]; Log10 concentration −7.0 Molar): 70%
- Percent Growth ([8]; Log10 concentration −8.0 Molar): 73%
- GI50 ([9]; Homo sapiens): > 100 µM
- CC50 ([9]; Homo sapiens, ROP-62, read-out: LC50 (the source's name)): > 100 µM
- TGI ([9]; ROP-62): >1.00E−04 Molar
- Percent Growth ([9]; ROP-62, Log10 concentration −4.0 Molar): 50%
- Percent Growth ([9]; ROP-62, Log10 concentration −5.0 Molar): 67%
- Percent Growth ([9]; ROP-62, Log10 concentration −6.0 Molar): 95%
- Percent Growth ([9]; ROP-62, Log10 concentration −7.0 Molar): 102%
- Percent Growth ([9]; ROP-62, Log10 concentration −8.0 Molar): 96%
- GI50 ([10]; Homo sapiens, SW-620): > 100 µM
- CC50 ([10]; Homo sapiens, SW-620, read-out: LC50 (the source's name)): > 100 µM
- TGI ([10]; SW-620): >1.00E−04 Molar
- Percent Growth ([10]; SW-620, Log10 concentration −4.0 Molar): 56%
- Percent Growth ([10]; SW-620, Log10 concentration −5.0 Molar): 57%
- Percent Growth ([10]; SW-620, Log10 concentration −6.0 Molar): 87%
- Percent Growth ([10]; SW-620, Log10 concentration −7.0 Molar): 99%
- Percent Growth ([10]; SW-620, Log10 concentration −8.0 Molar): 102%
- GI50 ([11]; Homo sapiens, SNB-19): 8.22 µM
- CC50 ([11]; Homo sapiens, SNB-19, read-out: LC50 (the source's name)): > 100 µM
- TGI ([11]; SNB-19): >1.00E−04 Molar
- Percent Growth ([11]; SNB-19, Log10 concentration −4.0 Molar): 37%
- Percent Growth ([11]; SNB-19, Log10 concentration −5.0 Molar): 47%
- Percent Growth ([11]; SNB-19, Log10 concentration −6.0 Molar): 86%
- Percent Growth ([11]; SNB-19, Log10 concentration −7.0 Molar): 90%
- Percent Growth ([11]; SNB-19, Log10 concentration −8.0 Molar): 95%
- GI50 ([12]; Homo sapiens, PC-3): 1.33 µM
- CC50 ([12]; Homo sapiens, PC-3, read-out: LC50 (the source's name)): > 100 µM
- TGI ([12]; PC-3): >1.00E−04 Molar
- Percent Growth ([12]; PC-3, Log10 concentration −4.0 Molar): 30%
- Percent Growth ([12]; PC-3, Log10 concentration −5.0 Molar): 29%
- Percent Growth ([12]; PC-3, Log10 concentration −6.0 Molar): 53%
- Percent Growth ([12]; PC-3, Log10 concentration −7.0 Molar): 103%
- Percent Growth ([12]; PC-3, Log10 concentration −8.0 Molar): 100%
- tumor growth [13]: showed inhibition of tumor growth
- GI50 ([14]; Homo sapiens, MCF7): 5.38 µM
- CC50 ([14]; Homo sapiens, MCF7, MC-F7, read-out: LC50 (the source's name)): > 100 µM
- TGI ([14]; MC-F7): >1.00E−04 Molar
- Percent Growth ([14]; MC-F7, Log10 concentration −4.0 Molar): 33%
- Percent Growth ([14]; MC-F7, Log10 concentration −5.0 Molar): 36%
- Percent Growth ([14]; MC-F7, Log10 concentration −6.0 Molar): 88%
- Percent Growth ([14]; MC-F7, Log10 concentration −7.0 Molar): 106%
- Percent Growth ([14]; MC-F7, Log10 concentration −8.0 Molar): 102%
- GI50 ([15]; Homo sapiens, NCI-H460): 2.12 µM
- CC50 ([15]; Homo sapiens, NCI-H460, read-out: LC50 (the source's name)): > 100 µM
- TGI ([15]; NCI-H460): >1.00E−04 Molar
- Percent Growth ([15]; NCI-H460, Log10 concentration −4.0 Molar): 20%
- Percent Growth ([15]; NCI-H460, Log10 concentration −5.0 Molar): 16%
- Percent Growth ([15]; NCI-H460, Log10 concentration −6.0 Molar): 67%
- Percent Growth ([15]; NCI-H460, Log10 concentration −7.0 Molar): 97%
- Percent Growth ([15]; NCI-H460, Log10 concentration −8.0 Molar): 91%
- TGI ([16]; CARI-1): >1.00E−04 Molar
- Percent Growth ([16]; CARI-1, Log10 concentration −4.0 Molar): 59%
- Percent Growth ([16]; CARI-1, Log10 concentration −5.0 Molar): 68%
- Percent Growth ([16]; CARI-1, Log10 concentration −6.0 Molar): 71%
- Percent Growth ([16]; CARI-1, Log10 concentration −7.0 Molar): 108%
- Percent Growth ([16]; CARI-1, Log10 concentration −8.0 Molar): 141%
- GI50 ([16]; Homo sapiens): > 100 µM
- CC50 ([16]; Homo sapiens, CARI-1, read-out: LC50 (the source's name)): > 100 µM
